Test results as given in patent US20190134128A1, “METHOD FOR PRODUCING CELASTROL AND PENTACYCLIC TRITERPENE DERIVATIVES” (PIERRE FABRE DERMO-COSMETIQUE, priority 2016, published 2019).
In brackets after ≈: the same amount, converted by molar mass.

What was measured:
[1] = test system: Propionibacterium acnes (CIP 53117T); experiment: Antimicrobial activity (MIC/MBC, micro-method in liquid medium) against Propionibacterium acnes; type: cell-based; conditions: 24 h
Method: Activity is evaluated on Propionibacterium acnes (CIP 53117T), with an inoculation suspension at 10^8 CFU/mL. The maintenance medium is Columbia agar+5% sheep blood, with incubation for 24 hours at 36±1° C. under anaerobic conditions. The test medium is composed of Mueller Hinton broth+10% foetal calf serum (FCS) and Columbia agar+5% sheep blood, with incubation for 24 h at 36±1° C. under anaerobic conditions. The determination of minimum inhibitory concentrations (MICs) is performed by micro-method in liquid medium. 100 μL of liquid culture medium is deposited in each well of a sterile 96-well microplate. 100 μL of the product to be tested is deposited in the first well of a row. One-half dilutions are then made from wells 1 to 10. Propionibacterium acnes test suspensions are prepared extemporaneously in tryptone salt. 100 μL is deposited in each well of a second microplate, except column 11. All of the first microplate is inoculated, using a Denley multipoint inoculator, from the second microplate. After incubation, MICs are defined as the highest dilution with no visible growth. Columns 11 and 12 serve as negative and positive growth control, respectively. Two references were tested in parallel. The determination of minimum bactericidal concentrations (MBCs) is performed by subculturing MIC microplates on agar medium using the Denley multipoint inoculator. After incubation, MBC is defined as the highest dilution with no visible growth. All tests are performed in duplicate.

S. aureus CIP 4.83 = experiment: Antimicrobial activity (MIC/MBC) against Staphylococcus aureus; type: cell-based
NFκB = experiment: Inhibitory activity against NFκB in HaCaT keratinocytes stimulated with TNF-alpha; type: cell-based, human; conditions: 2 μM, TNF-alpha 0.3 ng/mL
From the text: The transcription factor NFκB controls the expression of a large number of genes involved in regulation of the inflammatory response. […] Certain pro-inflammatory stimuli such as TNF-alpha and IL-1-beta lead to the activation of NFκB, i.e. its nuclear translocation. Once in the nucleus, NFκB will induce the transcription of pro-inflammatory genes encoding cytokines, chemokines, adhesion molecules, growth factors and inducible enzymes.
The anti-inflammatory activities of the extracts obtained from the suspensions contained in Erlenmeyer flasks E1, E2, E3 and E6 of example 8 were evaluated in vitro on human HaCaT keratinocytes according to the method described by Albanesi et al. The extracts, weighed in dry weight, were taken up in a buffer and introduced into a HaCaT cell culture solution in equivalent final concentrations (ng/mL) for each extract and incubated for 1 hour. NFκB expression is then induced by stimulation with TNF-alpha (0.3 ng/mL).

[2] = Staphylococcus aureus, CIP4, 24 h
[3] = Propionibacterium acnes, anaerobic
[4] = S. aureus CIP 4.83, 36° C., 24 h

| Structure (SMILES) | MBC ([1]; Cutibacterium acnes) [µg/mL] | MIC ([1]; Cutibacterium acnes) [µg/mL] | MBC (S. aureus CIP 4.83; [2]) [µg/mL] | MIC (S. aureus CIP 4.83; [2]) [µg/mL] | % inhibition of NFκB expression with respect to induction of TNF-alpha (NFκB) | % inhibition of NFκB expression with respect to induction of TNF-alpha (NFκB; listed as Dex) [%] | MBC [1, 3] [µg/mL] | MIC [1, 3] [µg/mL] | MBC (S. aureus CIP 4.83; [4]) [µg/mL] | MIC (S. aureus CIP 4.83; [4]) [µg/mL] |
| --- | --- | --- | --- | --- | --- | --- | --- | --- | --- | --- |
| CC1=C(O)C(=O)C=C2C1=CC=C1[C@@]2(C)CC[C@@]2(C)[C@@H]3C[C@@H](C)C(=O)[C@@H](O)[C@]3(C)CC[C@]12C [Tingenin B, tingenin B] | 1.17 (≈ 2.68 µM) | 1.17 (≈ 2.68 µM) | 1.17 (≈ 2.68 µM) | 0.59 (≈ 1.35 µM) |  |  |  |  |  |  |
| CC1=C(O)C(=O)C=C2C1=CC=C1[C@@]2(C)CC[C@@]2(C)C3C[C@@H](C)C(=O)C[C@]3(C)CC[C@]12C (stereo partly drawn) [Tingenin A, tingenin A] | 2.34 (≈ 5.56 µM) | 2.34 (≈ 5.56 µM) | 2.34 (≈ 5.56 µM) | 1.17 to 2.34 (≈ 2.78 to 5.56 µM) |  |  |  |  |  |  |
| C[C@@H]1C[C@H]2[C@@H]3CCC4=CC(=O)C=C[C@]4(C)[C@@]3(F)[C@@H](O)C[C@]2(C)[C@@]1(O)C(=O)CO [Dexamethasone] |  |  |  |  | more than 40% | 42.5 |  |  |  |  |
| C[S+](C)[O-] [DMSO] |  |  |  |  |  |  | 5 (≈ 64 µM) | 5 (≈ 64 µM) | >5 | >5 |
| CC1=C(O)C(=O)C=C2C1=CC=C1[C@@]2(C)CC[C@@]2(C)[C@@H]3C[C@](C)(C(=O)O)CC[C@]3(C)CC[C@]12C [Celastrol, celastrol] | 1.17 (≈ 2.6 µM) | 0.59 (≈ 1.31 µM) | 0.59 (≈ 1.31 µM) | 0.29 (≈ 0.644 µM) |  |  |  |  |  |  |
